Reference: US20100267561A1, “HERBICIDAL PYRIDAZINONE DERIVATIVES” (priority 2007, published 2010)

Legend:
Format in all cases: in vivo
[1] = tested on: umbrella sedge (Cyperus difformis); test: Test B flooded paddy test plant response
How it was run: (§1)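 Step one: raise plants to 2 leaves. Step two: flood pots 3 cm over the soil and apply compound into the water, keeping this depth. Step three: after 13–15 greenhouse days, score visually versus controls, 0–100, where 100 means complete control.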

[2] = tested on: rice (Oryza sativa); test: Test B flooded paddy test plant response
How it was run: as §1

[3] = tested on: barnyardgrass (Echinochloa crus-galli); test: Test B flooded paddy test plant response
How it was run: as §1

[4] = tested on: chickweed (Stellaria media); test: Test B postemergence plant response; details: for Chickweed plant response rating: 8 g ai/ha, postemergence, 0-100 scale; for Plant response rating, Chickweed: Postemergence
How it was run: (§2)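 Following treatment of plants 2 to 18 cm high after emergence, pots were held under glass for 13 to 15 days; efficacy was then graded visually, 100 denoting complete control and a dash no test result.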

[5] = tested on: winter barley (Hordeum vulgare); test: Test B postemergence plant response; details: for Barley plant response rating: 8 g ai/ha, postemergence, 0-100 scale; for Plant response rating, Barley: Postemergence, scale 0 to 100, 0 no effect, 100 complete control
How it was run: as §2

[6] = tested on: canarygrass (Phalaris minor); test: Test B postemergence plant response; details: for Canarygrass plant response rating: 8 g ai/ha, postemergence, 0-100 scale; for Plant response rating, Canarygrass: Postemergence
How it was run: as §2

[7] = tested on: windgrass (Apera spica-venti); test: Test B postemergence plant response; details: for Windgrass plant response rating: postemergence, 0-100 scale; for Plant response rating, Windgrass: Postemergence
How it was run: as §2

[8] = tested on: large crabgrass (Digitaria sanguinalis); test: Test A pre-/postemergence plant response
How it was run: (§3)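 Scores reflect visual plant injury relative to untreated controls on a 0–100 scale, recorded approximately 10 days after simultaneous preemergence soil spraying and postemergence spraying of one- to two-leaf seedlings grown in loam–sand.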

[9] = tested on: barnyardgrass (Echinochloa crus-galli); test: Test A pre-/postemergence plant response
How it was run: as §3

[10] = tested on: giant foxtail (Setaria faberi); test: Test A pre-/postemergence plant response
How it was run: as §3

[11] = tested on: velvetleaf (Abutilon theophrasti); test: Test A pre-/postemergence plant response
How it was run: as §3

[12] = tested on: wheat (Triticum aestivum); test: Test A pre-/postemergence plant response
How it was run: as §3

[13] = tested on: morningglory (Ipomoea coccinea); test: Test A pre-/postemergence plant response
How it was run: as §3

[14] = tested on: corn (Zea mays); test: Test A pre-/postemergence plant response
How it was run: as §3

[15] = Flood (flooded paddy test), 62 g ai/ha, scale 0 to 100, 0 no effect, 100 complete control
[16] = Flood (flooded paddy test), 125 g ai/ha, scale 0 to 100, 0 no effect, 100 complete control
[17] = Flood (flooded paddy test), 250 g ai/ha, scale 0 to 100, 0 no effect, 100 complete control
[18] = Flood, 31 g ai/ha, scale 0 to 100
[19] = 31 g ai/ha, scale 0 to 100, 0 no effect, 100 complete control
[20] = 62 g ai/ha, scale 0 to 100, 0 no effect, 100 complete control
[21] = Postemergence, 31 g ai/ha, 0 to 100 scale, 0 no effect, 100 complete control
[22] = Postemergence, 125 g ai/ha, 0 to 100 scale, 0 no effect, 100 complete control
[23] = Preemergence, 31 g ai/ha, 0 to 100 scale, 0 is no effect, 100 is complete control
[24] = Preemergence, 125 g ai/ha, 0 to 100 scale (0 no effect, 100 complete control)

CCCc1cc(-c2ccc(Cl)cc2)nn1-c1c(O)cnn(C)c1=O [Compound 43]
Plant response rating, Sedge, Umbrella [1, 15]: 0
Plant response rating, Sedge, Umbrella [1, 16]: 0
Plant response rating, Sedge, Umbrella [1, 17]: 0
Plant response rating, Sedge, Umbrella [1, 18]: 0
Plant response rating, Rice [2, 15]: 15
Plant response rating, Rice [2, 16]: 20
Plant response rating, Rice [2, 17]: 20
Plant response rating, Rice [2, 18]: 0
Plant response rating, Barnyardgrass [3, 15]: 50
Plant response rating, Barnyardgrass [3, 16]: 75
Plant response rating, Barnyardgrass [3, 18]: 40
Chickweed plant response rating [4]: 0
Plant response rating, Chickweed ([4]; 16 g ai/ha, scale 0 to 100): 0
Plant response rating, Chickweed [4, 19]: 0
Plant response rating, Chickweed [4, 20]: 0
Barley plant response rating [5]: 20
Plant response rating, Barley ([5]; 16 g ai/ha): 50
Plant response rating, Barley ([5]; 62 g ai/ha): 50
Canarygrass plant response rating [6]: 30
Plant response rating, Canarygrass ([6]; 16 g ai/ha, scale 0 to 100): 50
Plant response rating, Canarygrass [6, 19]: 50
Plant response rating, Canarygrass [6, 20]: 95
Windgrass plant response rating ([7]; 8 g ai/ha): 50
Plant response rating, Windgrass ([7]; 16 g ai/ha, scale 0 to 100): 70
Plant response rating, Windgrass [7, 20]: 100
Plant response rating, Crabgrass, Large [8, 21]: 40
Plant response rating, Crabgrass, Large [8, 22]: 90
Plant response rating, Crabgrass, Large [8, 23]: 10
Plant response rating, Crabgrass, Large [8, 24]: 90
Plant response rating, Barnyardgrass [9, 21]: 90
Plant response rating, Barnyardgrass [9, 22]: 100
Plant response rating, Barnyardgrass [9, 23]: 100
Plant response rating, Barnyardgrass [9, 24]: 100
Plant response rating, Foxtail, Giant [10, 21]: 80
Plant response rating, Foxtail, Giant [10, 22]: 100
Plant response rating, Foxtail, Giant [10, 23]: 90
Plant response rating, Foxtail, Giant [10, 24]: 100
Plant response rating, Velvetleaf [11, 21]: 0
Plant response rating, Velvetleaf [11, 22]: 0
Plant response rating, Velvetleaf [11, 23]: 0
Plant response rating, Velvetleaf [11, 24]: 0
Plant response rating, Wheat [12, 21]: 40
Plant response rating, Wheat [12, 22]: 80
Plant response rating, Wheat [12, 23]: 20
Plant response rating, Wheat [12, 24]: 70
Plant response rating, Morningglory [13, 21]: 0
Plant response rating, Morningglory [13, 22]: 0
Plant response rating, Morningglory [13, 23]: 0
Plant response rating, Morningglory [13, 24]: 0
Plant response rating, Corn [14, 21]: 50
Plant response rating, Corn [14, 22]: 80
Plant response rating, Corn [14, 23]: 0
Plant response rating, Corn [14, 24]: 90

CCc1cc(-c2ccc(C(F)(F)F)cc2)nn1-c1c(O)c(OC)nn(C)c1=O [Compound 66]
Plant response rating, Sedge, Umbrella [1, 15]: 0
Plant response rating, Sedge, Umbrella [1, 16]: 0
Plant response rating, Sedge, Umbrella [1, 17]: 0
Plant response rating, Sedge, Umbrella [1, 18]: 0
Plant response rating, Rice [2, 15]: 0
Plant response rating, Rice [2, 16]: 0
Plant response rating, Rice [2, 17]: 30
Plant response rating, Rice [2, 18]: 0
Plant response rating, Barnyardgrass [3, 15]: 0
Plant response rating, Barnyardgrass [3, 16]: 20
Plant response rating, Barnyardgrass [3, 17]: 20
Plant response rating, Barnyardgrass [3, 18]: 0
Chickweed plant response rating [4]: 0
Plant response rating, Chickweed ([4]; 16 g ai/ha, scale 0 to 100): 0
Plant response rating, Chickweed ([4]; 31 g ai/ha, scale 0 to 100): 0
Plant response rating, Chickweed [4, 20]: 0
Barley plant response rating [5]: 90
Plant response rating, Barley ([5]; 16 g ai/ha): 98
Plant response rating, Barley ([5]; 31 g ai/ha): 100
Canarygrass plant response rating [6]: 40
Plant response rating, Canarygrass ([6]; 16 g ai/ha, scale 0 to 100): 90
Plant response rating, Canarygrass ([6]; 31 g ai/ha, scale 0 to 100): 95
Windgrass plant response rating ([7]; 8 g ai/ha): 90
Windgrass plant response rating ([7]; 16 g ai/ha): 100
Plant response rating, Windgrass ([7]; 31 g ai/ha, scale 0 to 100): 100
Plant response rating, Windgrass [7, 20]: 100
Plant response rating, Crabgrass, Large [8, 21]: 100
Plant response rating, Crabgrass, Large [8, 22]: 100
Plant response rating, Crabgrass, Large [8, 23]: 0
Plant response rating, Crabgrass, Large [8, 24]: 70
Plant response rating, Barnyardgrass [9, 21]: 100
Plant response rating, Barnyardgrass [9, 22]: 100
Plant response rating, Barnyardgrass [9, 23]: 10
Plant response rating, Barnyardgrass [9, 24]: 100
Plant response rating, Foxtail, Giant [10, 21]: 100
Plant response rating, Foxtail, Giant [10, 22]: 100
Plant response rating, Foxtail, Giant [10, 23]: 90
Plant response rating, Foxtail, Giant [10, 24]: 100
Plant response rating, Velvetleaf [11, 21]: 0
Plant response rating, Velvetleaf [11, 22]: 0
Plant response rating, Velvetleaf [11, 23]: 0
Plant response rating, Velvetleaf [11, 24]: 0
Plant response rating, Wheat [12, 21]: 90
Plant response rating, Wheat [12, 22]: 100
Plant response rating, Wheat [12, 23]: 60
Plant response rating, Wheat [12, 24]: 90
Plant response rating, Morningglory [13, 21]: 0
Plant response rating, Morningglory [13, 22]: 0
Plant response rating, Morningglory [13, 23]: 0
Plant response rating, Morningglory [13, 24]: 0
Plant response rating, Corn [14, 21]: 100
Plant response rating, Corn [14, 22]: 100
Plant response rating, Corn [14, 23]: 40
Plant response rating, Corn [14, 24]: 80
